# Source: US12180146B2, “Antihypertensive polyol compound and derivative thereof” (TAO PHARMACEUTICAL (SUZHOU) CO., LTD, priority 2020, dated 2024)
# Key:
# [1] = test system: hypoxic pulmonary hypertension model rats; assay: Hypoxic pulmonary hypertension model rats, oral (gavage) treatment for 28 days; type: in vivo, SD rats; conditions: hypoxic PAH rats, 200 mg/kg, po
# Description: An animal model of pulmonary hypertension in SD rats was established in a hypoxic and low-pressure environment, and compound 1 was administered by gavage at the same time for treatment. The rat pulmonary artery hemodynamics and right heart hypertrophy index RVHI were measured to determine whether compound 1 has effects of improving hypoxic pulmonary hypertension.
# (§1) SD rats (purchased from Shanghai Xipuer-Bikai Experimental Animal Co., Ltd.), male, weighing 180-200 g, were bred in an artificially controlled animal room with each 12 hours of light and darkness at a temperature of 20-25° C. and relative humidity of 50-60%, and allowed ad libitum to food and water. The rats were randomly divided into groups according to the experimental requirements, and kept separately in cages, with 3 to 4 rats per cage. All relevant operations of animal experiments are in compliance with the provisions of “Guidelines for the Management and Use of Laboratory Animals” of China.
# The hypoxic PAH model was established by placing SD male rats in a fully-automatically regulated low-pressure hypoxic chamber (atmospheric pressure of about 50 kPa, oxygen concentration of 10%) for 8 hours a day for 28 days. The rats in the blank control group were kept in a normoxic environment.
# The experimental rats of hypoxic PAH model were divided into 8 groups, namely blank control group, model group, Sidenafil (25 mg/kg) group, compound 1 (10 mg/kg) group, compound 1 (25 mg/kg) group, compound 1 (50 mg/kg) group, compound 1 (100 mg/kg) group, and compound 1 (200 mg/kg) group. The concentration in the parentheses of the group name represents the administration concentration of the compound or drug. In hypoxia-induced PAH experiments, Sidenafil is often used as a positive drug, which can reduce the pulmonary artery pressure in rats and reduce the right ventricular hypertrophy and vascular remodeling. In this experiment, 25 mg/kg of Sidenafil was used as the positive drug. Both the positive drugs Sidenafil and Compound 1 were dissolved in physiological saline and formulated into solutions of different concentrations according to different administration concentrations. The rats were continuously administered for 28 days with an administration volume of 5 ml/kg. Rats in the control and model groups were given the corresponding volume of physiological saline solution via gavage. The specific grouping can be found in Table 5.
# After the administration was completed, the POWERLAB biological information acquisition and treatment system was started, and the right cardiac catheter filled with 0.2% heparin sodium (Beijing Solo Technology Co. Ltd.) in normal saline was connected to the pressure transducer and then zero-calibrationed for use. After 20% urethane (Shanghai Yuanye Biotechnology Co., Ltd.) solution was injected into the abdominal cavity of the rats for anesthesia, the right neck hair was shaved and the right jugular vein was isolated and exposed. […] After the typical right ventricular waveform appeared and stabilized for a while, the waveform was recorded, and then the pressure value was read by Powerlab biological information acquisition and processing system (ADInstruments).
# After the pressure was measured, the catheter was taken out, and the rat was dissected immediately to take out the heart and lung tissues. The right ventricle (RV) and the left ventricle and interventricular septum (LV+S) were separated and weighed, and the right heart hypertrophy index RVHI=RV/(LV+S) was calculated. The lung lobe tissue from the right lower part of the lung was separated, soaked in 4% paraformaldehyde (Sigma) for about 1 week to prepare a paraffin section with a thickness of 3 μm, and then conducted to hematoxylin-eosin staining (Wuhan Guge Biotechnology Co., Ltd.). […]
# [2] = test system: monocrotaline-induced pulmonary hypertension model rats (MCT-PAH); assay: Monocrotaline-induced pulmonary hypertension model rats, oral (gavage) treatment for 21 days; type: in vivo, SD rats; conditions: 100 mg/kg
# From the text: Monocrotaline (MCT) was subcutaneously injected to establish an animal model of pulmonary hypertension in SD rats. At the same time, compound 1 was given by gavage for treatment. The pulmonary artery hemodynamics and right heart hypertrophy index RVHI of the rates were detected to determine whether the oral administration of compound 1 has effects of improving Monocrotaline induces pulmonary hypertension.
# as §1
# During the experiment, SD rats were randomly divided into 4 groups: blank control group, pulmonary hypertension model group, Selexipag (1 mg/kg) treatment group and compound 1 (100 mg/kg) group with 6 rats in each group, and the concentration in brackets represents the administration concentration of the compound, in which Selexipag is a new oral long-acting prostacyclin receptor agonist discovered and synthesized by Japan New Drug Co., Ltd. On the first day of the experiment, normal saline was injected subcutaneously into the back of neck of rats in the blank control group, and monocrotaline (Chengdu Purifa Biotechnology Co., Ltd.) solution was injected in the rats in other groups at a dosage of 60 mg/kg. Both the positive drug, Selexipag and Compound 1 were administered by gavage. Selexipag and […] were dissolved in 0.5% CMC-Na solution. The rats were continuously administered for 21 days with a volume of […]. The rats in the control and model groups were given the corresponding volume of CMC-Na solution by gavage. Specific groupings can be found in Table 7.
# After the administration, the pulmonary vascular hemodynamics and RVHI was determined according to the same experiment method as that in Example 1.
# [3] = test system: spontaneously hypertensive rats (SHR); assay: Antihypertensive activity test: blood pressure and heart rate of spontaneously hypertensive rats (SHR); type: in vivo, rat; conditions: 200 mg/kg
# Summary of the method: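 Spontaneously hypertensive rats received compound at 200 mg/kg. SBP and heart rate were measured before and after dosing. A drop in SBP of ≥20 mmHg from baseline counted as effective, and heart-rate changes were tested by paired t-test (P<0.05).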
# [4] = test system: monocrotaline-induced pulmonary hypertension model rats (MCT-PAH); assay: Monocrotaline-induced pulmonary hypertension model rats, aerosol inhalation treatment; type: in vivo, SD rats; conditions: 30 mg/kg, inh, 28 days
# Description: A pulmonary hypertension animal model of SD rats was established by subcutaneous injection of monocrotaline (MCT). The compound 1 was administered by aerosol inhalation for treatment. The pulmonary artery hemodynamics and right heart hypertrophy index RVHI of rats were tested to determine whether compound 1 administered by aerosol inhalation has effects of improving monocrotaline-induced pulmonary hypertension.
# as §1
# In the second experiment, the rats were divided into 5 groups, namely the control group, model group, positive control Tyvaso (1.62 μg/kg) group, compound 1 (10 mg/kg) group and compound 1 (30 mg/kg) group. On the first day of the experiment, normal saline was injected subcutaneously into the back of the neck of the rats in the blank control group, and monocrotaline (Chengdu Purifa Biotechnology Co., Ltd.) solution was injected in the other groups at a dosage of 60 mg/kg. Compound 1 and Tyvaso were administered by aerosol inhalation, that is, the compound was firstly dissolved in physiological saline, and then the solution was prepared into an aerosol with a nebulizer to be inhaled into the mouth and nose of rats. The rats in the control group and the model group only inhaled an aerosol made of physiological saline. The rats were continuously administered for 28 days, and the concentration in the parentheses of the group name represents the administered concentration of the compound. Specific groupings can be found in Table 9. After the administration, the pulmonary vascular hemodynamics and RVHI were determined in the same way as the experiment method in Example 1.
structure (smiles),measurement,setting,value
COc1cccc(C(O)CO)c1 (stereo not shown) [Compound 8],2 × MT/ED,[1],0.277 ± 0.022
same,RVHI,[1],0.296 ± 0.027
same,RVSP,[1],62.50 ± 2.91 mmHg
same,mPAP,[1],17.19 ± 3.65 mmHg
same,2 × MT/ED,[2],0.31 ± 0.052
same,RVHI,[2],0.33 ± 0.037
same,RVSP,[2],45.97 ± 3.49 mmHg
same,mPAP,[2],16.47 ± 3.07 mmHg
same,"SBP Difference before and after administration, 0 h",[3]; 0 h,0 mmHg
same,"SBP Difference before and after administration, 1 h",[3]; 1 h,6 mmHg
same,"SHR blood pressure (SBP), time after administration 1 h","[3]; 1 h, n = 8",188 ± 12.4 mmHg
same,"SBP Difference before and after administration, 2 h",[3]; 2 h,13 mmHg
same,"SHR blood pressure (SBP), time after administration 2 h","[3]; 2 h, n = 8",181 ± 12.7 mmHg
same,"SBP Difference before and after administration, 3 h",[3]; 3 h,18 mmHg
same,"SHR blood pressure (SBP), time after administration 3 h","[3]; 3 h, n = 8",176 ± 11.1 mmHg
same,"SBP Difference before and after administration, 4 h",[3]; 4 h,18 mmHg
same,"SHR blood pressure (SBP), time after administration 4 h","[3]; 4 h, n = 8",176 ± 10.3 mmHg
same,"SBP Difference before and after administration, 5 h",[3]; 5 h,14 mmHg
same,"SHR blood pressure (SBP), time after administration 5 h","[3]; 5 h, n = 8",180 ± 11.3 mmHg
same,"SBP Difference before and after administration, 6 h",[3]; 6 h,8 mmHg
same,"SHR blood pressure (SBP), time after administration 6 h","[3]; 6 h, n = 8",186 ± 10.4 mmHg
same,2 × MT/ED,[4],0.353 ± 0.043
same,RVHI,[4],0.306 ± 0.027
same,RVSP,[4],45.92 ± 3.47 mmHg
same,mPAP,[4],14.16 ± 3.84 mmHg
